Experimental data published in patent US11229712B2, “In vivo detection of a xenon-binding cage molecule” (Lakehead University, priority 2016, dated 2022).
Entries after “also recorded” stand apart in the source; their conditions may differ.

Experiments:
[1] = In vivo HyperCEST 129Xe MRI saturation maps showing location of CB6; set-up: species or system Sprague-Dawley rat; details: rat
Text: We then acquired ^1H turbo spin echo (TSE) MR images to correlate the xenon signal with its anatomical location. Immediately prior to ^129Xe image acquisition, the rat was ventilated with xenon as described above. The imaging sequence began with a saturation pre-pulse consisting of sixteen 20 ms 3-lobe sinc pulses with a 3 sec pulse interval applied at […] chemical shift frequencies. ^129Xe gradient echo (GE) images were acquired with both on-resonance and off-resonance saturation pre-pulses (FIGS. 6 & 7B & E). […] By applying the HyperCEST saturation pulses, we observed a reduction in signal in areas containing the CB6 molecules (FIGS. 6 & 7E).
We also created a HyperCEST saturation map in the brain of the rat (FIG. 8B).
All animal procedures were approved by the Lakehead University Animal Care Committee. Sprague-Dawley rats (n=6) (Charles River, Sherbrook QC) weighing between 300-400 g were anesthetized using 4 LPM of isoflurane until their corneal reflex became absent. […]
(§1) A midline incision was made in the neck of the rat and the trachea localized. […] A Positive End Expiratory Pressure of 20 mBar was measured. […]
30 minutes following CB6 injection, the ventilator was set to dispense xenon to the rat. […] Images were collected and analyzed using MATLAB. […]

[2] = HyperCEST 129Xe MR imaging of syringes with CB6 blood solution and saturation map; assay type: physicochemical, bovine; details: 2.5 mM CB6 in blood, on-resonance pre-pulses at 124.3 ppm (FIG. 4)
Text: We obtained MR images of two syringes within the same field of view: one filled with a CB6 blood solution, the other with only a blood solution and no CB6 molecules (FIG. 4). Signal from the plasma, gas phase, and RBC-bound xenon is present in the control image (FIG. 4A). We observed a gas phase chemical shift artifact, offset by 43 pixels of 67.1 mm. Additionally, we observed a stronger gas phase signal from the control solution (right syringe) than the CB6 syringe (left syringe). We attribute this phenomenon to the differences in the extent of blood foam formation between the two solutions. The control solution foamed more than the CB6 solution, which provided a reservoir of gaseous hyperpolarized xenon to exchange with the xenon dissolved in the plasma providing a stronger xenon-plasma signal. […] A saturation map was produced (FIG. 4C) by normalizing each image by Its own background noise and subtracting the off-resonance control image from the HyperCEST saturation image and normalizing pixel-by-pixel, the off-resonance image. […]
^129Xe gas was polarized to 30% using a Xemed polarizer (Xemed, Durham, N.H.). […] The signal-noise ratio (SNR) of each spectrum was calculated using MATLAB (MathWorks, Natick Mass.). Signal depletion values due to the HyperCEST effect were measured by subtracting the HyperCEST saturation spectrum SNR from the control spectrum SNR and dividing by the control SNR.

[3] = HyperCEST depletion of CB6 in whole bovine blood (129Xe NMR spectra, 3T); assay type: physicochemical
Protocol: […] of cucurbituril (CB6) was made by dissolving 50 mg of CB6 (Sigma-Aldrich, St. Louis, USA) in 10 mL of 1× phosphate buffered saline (PBS) at pH 7.2 at room temperature. The mixture was shaken gently. Ten mL of the CB6-PBS solution was mixed with 10 mL of fresh citrated bovine blood (Cederlane, Burlington Calif.) within a 30 mL syringe to create a 2.5 mM solution of CB6 in a blood solution. The control sample was prepared in an identical manner as the CB6 solution except CB6 was omitted. The control sample contained 10 mL of PBS and 10 mL of bovine blood.
Serial dilutions of CB6 in blood were made by adding an appropriate amount of blood to the 2.5 mM stock solution.
^129Xe gas was polarized to 30% using a Xemed polarizer (Xemed, Durham, N.H.). 7.5 mL of HP ^129Xe gas was introduced into the syringe over 5 s from the Tedlar bag in the pressure chamber which was pressurized at 3 psi above atmosphere. The solution and gas were mixed by agitating the syringe for approximately 12 s. Approximately 3 mL of ^129Xe dissolved in the blood/PBS solvent, the remaining undissolved ^129Xe was ejected from the syringe, yielding an effective ^129Xe concentration of 7.5 mM. The procedure was repeated for each spectral acquisition for the HyperCEST depletion spectrum. The 30 mL syringe containing the CB6-blood solution was placed inside a custom RF coil tuned to the Larmor frequency of 129Xe (35.33 MHz) at 3T. A Philips Achieva 3T clinical scanner was used to acquire all NMR spectra and MR images. A free induction decay (FID) was collected and the chemical shift of the ^129Xe/CB6 complex was noted. Ref B1 is a parameter of Philips MR scanners and is used to calculate the RF pulse length. The scanner uses the pulse length and flip angle to determine the amplitude of the RF pulse and field strength. For these experiments, the scanner set a B1 field strength of 1.18 μT. For the NMR spectra and images, a pulsed saturation pre-pulse train consisting of 16-6 ms 3-lobe sinc pulses with 3 ms pulse intervals was applied +124.3 ppm off resonance from the gas phase peak which corresponds to the chemical shift of the CB6-Xe complex. For initial HyperCEST depletion measurements, control spectra were collected with an off resonance saturation pre-pulse at 258 ppm. A HyperCEST depletion spectrum was collected by measuring HyperCEST depletion at various shift offsets from the CB6/Xe peak. A minimum of 3 spectra were collected at each chemical shift and the mean signal depletion was plotted as a function of the frequency of the chemical shift offset. The signal-noise ratio (SNR) of each spectrum was calculated using MATLAB (MathWorks, Natick Mass.). Signal depletion values due to the HyperCEST effect were measured by subtracting the HyperCEST saturation spectrum SNR from the control spectrum SNR and dividing by the control SNR.

[4] = In vivo HyperCEST 129Xe MR spectra of abdomen and brain after IV CB6; set-up: species or system Sprague-Dawley rat; details: 3 mL of 10 mM CB6 IV, pre-pulse +124.3 ppm
Protocol: A 10 mM solution of the CB6 cage molecule dissolved in 1×PBS (pH 7.2) was prepared. 3 mL of the CB6 solution was injected into the tail vein catheter of a Sprague-Dawley rat and allowed to bio-distribute for 30 minutes. An endotracheal tube was surgically placed in the anaesthetized rat, and the rat was ventilated with 100% oxygen using a custom made ventilator. The rat was placed into a whole body custom made rat RF coil. Five seconds prior to xenon MR image acquisition, the rat was ventilated with a gas mixture of 80% xenon/20% oxygen. We acquired free induction decay (FID) magnetic resonance spectra (MRS) (FIGS. 5 & 6, A & D) from both the abdomen and head of the rat. […] We attribute this to a variety of susceptibility and line broadening effects occurring in vivo. […]
as §1
30 minutes following injection of CB6, the ventilator was set to continuously dispense an 80% xenon/20% oxygen mixture to the rat. […] The signal to noise ratio (SNR) of each spectrum was calculated using MATLAB. The HyperCEST depletion at each chemical shift offset was calculated and plotted using Microsoft Excel.

[5] = from reference 14; cited from earlier work

O=C1N2CN3C(=O)N4CN5C(=O)N6CN7C(=O)N8CN9C(=O)N%10CN%11C(=O)N%12CN1C1C2N2CN%13C(=O)N(CN%14C(=O)N(CN%15C(=O)N(CN%16C(=O)N(CN%17C(=O)N(CN1C2=O)C%12C%11%17)C%10C9%16)C8C7%15)C6C5%14)C4C3%13 (centres unmarked) [CB6, cucurbituril]
Location of CB6 in HyperCEST saturation map ([1]; 3 mL of 10 mM CB6 IV, imaging 30 minutes after injection): heart, lungs, aorta, kidneys, and bladder; also recorded: brain, heart, lungs, aorta, carotid arteries, and kidneys
Excretion of CB6 ([1]; weak HyperCEST signal from the bladder): renal clearance into the bladder; also recorded: excreted by the kidneys
Depletion of dissolved phase xenon signal in MR image and saturation map [2]: almost complete depletion; also recorded: strong CB6 HyperCEST signal depletion
HyperCEST depletion as a function of CB6 concentration ([3]; 250 μM CB6 in whole bovine blood (FIG. 3)): 14%
HyperCEST depletion in the dissolved phase xenon signal ([3]; 2.5 mM CB6 in blood and PBS, saturation pre-pulse train at +124.3 ppm (FIG. 1)): 84%
HyperCEST depletion as a function of CB6 concentration ([3]; 2.5 mM CB6 in whole bovine blood (FIG. 3)): 80%
HyperCEST signal depletion, local minimum of depletion spectrum ([3]; CB6 in blood, pulsed at +124.3 ppm (FIG. 2)): 74%
Lowest CB6 concentration at which HyperCEST depletion was measurable ([3]; serial dilutions of CB6 in blood): 10 µM
Reduction in signal intensity compared to the off-resonance control spectrum ([4]; rat abdomen, 30 minutes): 86%
Reduction in signal intensity of the MR signal ([4]; rat brain): 38%
Xe-CB6 exchange [5]: 1470 s⁻¹
